# US20050220819A1, “Novel binding epitopes for helicobacter pylori and use thereof” (priority 2002, published 2005)
# Entries after “also recorded” stand apart in the source; their conditions may differ.
# Tests used:
# Helicobacter pylori [1] = assay: TLC bacterial overlay assay: binding of radiolabeled Helicobacter pylori to glycosphingolipids, neoglycolipids and glycolipid derivatives on thin-layer plates; conditions: for binding activity of neoglycolipids with regard to Helicobacter pylori (in words): oligosaccharides reductively aminated to lipid anchor (4-hexadecylaniline); for binding activity of neoglycolipids with regard to Helicobacter pylori (in words) / binding of glycolipid derivatives with regard to Helicobacter pylori (in words): TLC overlay assay; for binding of Helicobacter pylori to purified glycosphingolipids (in words): strain 032, overlay assay on thin-layer plates
# Helicobacter pylori [2] = conditions: Mysore et al., 2000; cited from earlier work
# [3] = tested on: Helicobacter pylori binding to human gastrointestinal cell lines; conditions: Simon et al., 1999; cited from earlier work
molecule,measurement,setting,value
Glc(A-NH2)β3GalNAcβ4Glc(A-NH2)β3GalNAc,binding activity of neoglycolipids with regard to Helicobacter pylori (in words),Helicobacter pylori [1],strong binding activity
CC(=O)NC1C(O)OC(COC2OC(CO)C(OC3OC(CO)C(O)C(OC4OC(CO)C(O)C(O)C4NC(C)=O)C3O)C(O)C2NC(C)=O)C(O)C1O (stereo not shown) [GlcNAcβ3Galβ4GlcNAcα6GlcNAc],binding activity of neoglycolipids with regard to Helicobacter pylori (in words),Helicobacter pylori [1],weakly binding or inactive
same,binding activity of neoglycolipids with regard to Helicobacter pylori (in words),Helicobacter pylori [1]; listed as GlcNAcα3Galβ4GlcNAcα6GlcNAc,inactive or very weakly active
GlcAβ3Galβ4GlcNAcβ6GlcNAc,binding activity of neoglycolipids with regard to Helicobacter pylori (in words),Helicobacter pylori [1],clear binding activity
CC(=O)N[C@H]1[C@H](OC[C@H]2OC(O)[C@H](O)[C@@H](O)[C@H]2O)O[C@H](CO)[C@@H](O[C@@H]2O[C@H](CO)[C@H](O)[C@H](O[C@@H]3O[C@H](CO)[C@@H](O)[C@H](O)[C@H]3NC(C)=O)[C@H]2O)[C@@H]1O (stereo partly shown) [GlcNAcβ3Galβ4GlcNAcβ6Gal],binding activity of neoglycolipids with regard to Helicobacter pylori (in words),Helicobacter pylori [1],some binding activity; also recorded: strong binding activity
maltoheptaose [reference compound],binding activity of neoglycolipids with regard to Helicobacter pylori (in words),Helicobacter pylori [1],weakly binding or inactive
sialyl-lactose,efficacy in rhesus monkey animal model of the infection,Helicobacter pylori [2],effective
same,inhibition of Helicobacter pylori binding to human gastrointestinal cell lines,[3],inhibits
"GalNAcβ3Galα3Galβ4GlcNAcβ3Galβ4Glcβ1Cer [No. 25, reference compound]",binding of Helicobacter pylori to purified glycosphingolipids (in words),Helicobacter pylori [1],non-binding
GlcAβ3Galβ4GlcNAcβ3Galβ4GlcβCer [reference compound],binding of glycolipid derivatives with regard to Helicobacter pylori (in words),Helicobacter pylori [1],binding active
Glc(A-octadecylamide)β3Galβ4GlcNAcβ3Galβ4GlcβCer,binding of glycolipid derivatives with regard to Helicobacter pylori (in words),Helicobacter pylori [1],binding active
same,binding strength towards H. pylori when comparing dilution series of glycolipids on TLC (in words),Helicobacter pylori [1],binding effectively
CC(=O)NC1C(OC2C(O)C(CO)OC(OC3C(CO)OC(O)C(O)C3O)C2O)OC(CO)C(OC2OC(CO)C(O)C(OC3OC(CO)C(O)C(O)C3O)C2O)C1O (stereo not shown) [Galα3Galβ4GlcNAcβ3Galβ4Glc],binding activity of neoglycolipids with regard to Helicobacter pylori (in words),Helicobacter pylori [1],clear binding activity
Glc(A-benzylamide)β3 Galβ4GlcNAcβ3Galβ4GlcβCer,binding of glycolipid derivatives with regard to Helicobacter pylori (in words),Helicobacter pylori [1],binding active
same,binding strength towards H. pylori when comparing dilution series of glycolipids on TLC (in words),Helicobacter pylori [1],binding effectively
CC(=O)NC1C(O)OC(CO)C(OC2OC(CO)C(O)C(OC3OC(CO)C(O)C(O)C3NC(C)=O)C2O)C1O (stereo not shown) [GlcNAcβ3Galβ4GlcNAc],binding activity of neoglycolipids with regard to Helicobacter pylori (in words),Helicobacter pylori [1],weakly binding or inactive
CC(=O)N[C@H]1[C@H](O[C@H]2[C@@H](O)[C@@H](CO)O[C@@H](O[C@H]3[C@H](O)[C@@H](O)C(O)O[C@@H]3CO)[C@@H]2O)O[C@H](CO)[C@@H](O[C@@H]2O[C@H](CO)[C@H](O)[C@@H](O[C@@H]3O[C@H](CO)[C@@H](O)[C@H](O)[C@H]3NC(C)=O)[C@H]2O)[C@@H]1O (stereo partly shown) [GlcNAcβ3Galβ4GlcNAcβ3Galβ4Glc],binding activity of neoglycolipids with regard to Helicobacter pylori (in words),Helicobacter pylori [1],clear binding activity
"NeuAcα3GalNAcβ3Galβ4GlcNAcβ3Galβ4Glcβ1Cer [No. 24, reference compound]",binding of Helicobacter pylori to purified glycosphingolipids (in words),Helicobacter pylori [1],non-binding
Glc(A-methylamide)β3Galβ4GlcNAcβ3Galβ4GlcβCer,binding of glycolipid derivatives with regard to Helicobacter pylori (in words),Helicobacter pylori [1],binding active
same,binding strength towards H. pylori when comparing dilution series of glycolipids on TLC (in words),Helicobacter pylori [1],very strong binding
"Galα3Galβ4GlcNAcβ3Galβ4Glcβ1Cer [No. 13, reference compound]",binding of Helicobacter pylori to purified glycosphingolipids (in words),Helicobacter pylori [1],binding-active
CC(=O)N[C@H]1[C@H](OC[C@H]2OC(O)[C@H](NC(C)=O)[C@@H](O)[C@@H]2O)O[C@H](CO)[C@@H](O[C@@H]2O[C@H](CO)[C@H](O)[C@H](O[C@@H]3O[C@H](CO)[C@@H](O)[C@H](O)[C@H]3NC(C)=O)[C@H]2O)[C@@H]1O (stereo partly shown) [GlcNAcβ3Galβ4GlcNAcβ6GlcNAc],binding activity of neoglycolipids with regard to Helicobacter pylori (in words),Helicobacter pylori [1],high affinity binding; also recorded: strong binding activity
CC(=O)N[C@H]1[C@H](OC[C@H]2OC(O)[C@H](NC(C)=O)[C@@H](O)[C@@H]2O)O[C@H](CO)[C@@H](O[C@@H]2O[C@H](CO)[C@H](O)[C@H](O)[C@H]2O)[C@@H]1O (stereo partly shown) [Galβ4GlcNAcβ6GlcNAc],binding activity of neoglycolipids with regard to Helicobacter pylori (in words),Helicobacter pylori [1],clear binding activity
CC(=O)N[C@H]1[C@H](OC[C@H]2O[C@@H](O[C@H]3[C@H](O)[C@@H](O)C(O)O[C@@H]3CO)[C@H](O)[C@@H](O)[C@H]2O)O[C@H](CO)[C@@H](O[C@@H]2O[C@H](CO)[C@H](O)[C@H](O[C@@H]3O[C@H](CO)[C@@H](O)[C@H](O)[C@H]3NC(C)=O)[C@H]2O)[C@@H]1O (stereo partly shown) [GlcNAcβ3Galβ4GlcNAcβ6Galβ4Glc],binding activity of neoglycolipids with regard to Helicobacter pylori (in words),Helicobacter pylori [1],weakly binding or inactive; also recorded: binding activity was strongly reduced
GlcAβ3GalNAcβ4GlcAβ3GalNAcβ4GlcAβ3GalNAc,binding activity of neoglycolipids with regard to Helicobacter pylori (in words),Helicobacter pylori [1],clear binding activity
"GalNAcβ3Galβ4GlcNAcβ3Galβ4Glcβ1Cer [No. 11, reference compound]",binding of Helicobacter pylori to purified glycosphingolipids (in words),Helicobacter pylori [1],binding was also found
CNC(=O)C1OC(OC2C(O)C(CO)OC(OC3C(CO)OC(OCC4OC(O)C(NC(C)=O)C(O)C4O)C(NC(C)=O)C3O)C2O)C(O)C(O)C1O (stereo not drawn) [Glc(A-methylamide)β3Galβ4GlcNAcβ6GlcNAc],binding activity of neoglycolipids with regard to Helicobacter pylori (in words),Helicobacter pylori [1],strong binding activity
CC(=O)NC1C(OC2C(O)C(CO)OC(OC3C(CO)OC(OC4C(O)C(O)OC(CO)C4O)C(NC(C)=O)C3O)C2O)OC(CO)C(O)C1O (stereo not shown) [GlcNAcβ3Galβ4GlcNAcβ3Man],binding activity of neoglycolipids with regard to Helicobacter pylori (in words),Helicobacter pylori [1],clear binding activity
CC(=O)NC1C(OC2C(O)C(CO)OC(OC3C(CO)OC(O)C(O)C3O)C2O)OC(CO)C(OC2OC(CO)C(O)C(OC3OC(C(=O)O)C(O)C(O)C3O)C2O)C1O (stereo not shown) [GlcAβ3Galβ4GlcNAcβ3Galβ4Glc],binding activity of neoglycolipids with regard to Helicobacter pylori (in words),Helicobacter pylori [1],clear binding activity
Glcβ3Galβ4GlcNAcβ3Galβ4GlcβCer,binding of glycolipid derivatives with regard to Helicobacter pylori (in words),Helicobacter pylori [1],binding active
same,binding strength towards H. pylori when comparing dilution series of glycolipids on TLC (in words),Helicobacter pylori [1],strong binding
Glc(A-ethylamide)β3 Galβ4GlcNAcβ3Galβ4GlcβCer,binding of glycolipid derivatives with regard to Helicobacter pylori (in words),Helicobacter pylori [1],binding active
same,binding strength towards H. pylori when comparing dilution series of glycolipids on TLC (in words),Helicobacter pylori [1],about equally strong binders and best among the four amide derivatives
CC(=O)NC1C(O)OC(CO)C(OC2OC(CO)C(O)C(OC3OC(CO)C(OC4OC(CO)C(O)C(O)C4NC(C)=O)C(O)C3NC(C)=O)C2O)C1O (stereo not shown) [GalNAcβ4GlcNAcβ3Galβ4GlcNAc],binding activity of neoglycolipids with regard to Helicobacter pylori (in words),Helicobacter pylori [1],clear binding activity
